For this test, the system named is bladder smooth muscle. The test can be described thus: Contraction studies on isolated rat bladder strips with electrical field stimulation. To be noted: isolated bladder tissue. In kind it is cell-based, Sprague-Dawley rat. As for the experimental part: Bladder strips from (male/female) Sprague-Dawley (Charles River) rat bladders were mounted in 10 ml tissue baths maintained at 37 C, containing 10 ml of a saline solution consisting of: NaCl (118.5 mM), KCl (4.8 mM), NaHCO3 (25 mM), KH2PO4 (1.2 mM), MgSO4 (1.2 mM), CaCl2 (2.5 mM), and glucose (11.0 mM). The bladder strips were aerated with a mixture of 95% O2 and 5% CO2. The tissues were initially equilibrated for one h with 1 g. resting weight. The control response to 67 mM KCl was then determined. Electrical field stimulation (EFS) was provided through platinum electrodes of 1.14 cm^2 surface area located one cm apart on either side of the tissue. Stimulation to the platinum electrodes was provided by a GRASS Medical Instruments (Quincy, Mass.) S88 Square Pulse Stimulator set to deliver 10 V pulses with a 0.5 ms pulse duration in a pulse train of 10 seconds at either 1, 2, 4, or 8 Hz.
`CCCCC/C=C\C/C=C\CC1OC1C/C=C\CCCC(=O)O` (stereo not shown) [8,9-EET, 8,9-epoxyeicosatrienoic acid]: the “effect on bladder smooth muscle stimulated by low frequency electric fields (relaxation)” value is given as “no effects”.
Next, `CCCCC/C=C\CC1OC1C/C=C\C/C=C\CCCC(=O)O` (stereo not shown) [11,12-EET, 11,12-epoxyeicosatrienoic acid]: “no effects”.
Under `CCCCCC(O)C(O)CC=CCC=CCC=CCCCC(=O)O` (stereo not shown) [14,15-DHET, 14,15-dihydroxyeicosatrienoic acid] stands “no effects”; under `CCCCCC1OC1CC=CCC=CCC=CCCCC(=O)O` (stereo not shown) [14,15-EET, 14,15-epoxyeicosatrienoic acid], “relaxes bladder smooth muscle”.

The record behind these values is patent US20090082402A1, “Methods of treating genitourinary disorders using inhibitors of soluble epoxide hydrolase” (Roche Palo Alto LLC, priority 2006, published 2009).
